Results: article PMC10142028, “Influence of Molecular Structure and Physicochemical Properties of Immunosuppressive Drugs on Micelle Formulation Characteristics and Cutaneous Delivery” (Pharmaceutics, 2023)
Values after ≈ are worked out from the molar mass of the structure shown. “Also recorded” adds a separate entry of the source. Read-outs that look alike come from different tables or passages of the source.

Columns and labels:
[1] = Drug solubility in water and in aqueous solution of TPGS; assay type: physicochemical; conditions: for Improvement of drug water solubility by addition of 50 mg/mL TPGS: TPGS 50 mg/mL solution vs water; for solubility at 24 h: thermodynamic from solid; for Aqueous solubility: in words, measured experimentally
Protocol: The solutions were kept at room temperature during a 24 h period of stirring. The samples were then centrifuged and the supernatant was collected and diluted in ACN prior to a UHPLC-MS/MS analysis. All the samples were prepared in triplicate.

[2] = Drug content determination of micelle formulations (UHPLC-UV); assay type: physicochemical; conditions: for Drug content of Formulation 5: Formulation 5, corresponds to approximately 2.3 mg/mL; for Water solubility reached by polymeric micelle formulation: corresponding to approximately 4.5 mg/mL
Protocol: Micelle formulations were prepared using the thin-film hydration method. […] The acetone was slowly removed by rotary evaporation (Büchi Vac V-513 Rotavapor®; Flawil, Switzerland) until the formation of a uniform thin-film, which was left under the hood overnight and then hydrated with 4 mL of ultrapure water. After equilibration for 2 h, the micelle solution was centrifuged at 10,000 rpm for 15 min (Eppendorf Centrifuge 5804; Hamburg, Germany) to remove excess drug, and the supernatant was carefully collected.
The micelle formulation was optimized in order to reach a high drug loading. […] The formulation with the highest drug content, which satisfied reproducibility and stability criteria, was chosen for the subsequent in vitro release and skin delivery studies. Drug loading was determined by UHPLC-UV.
The amount of drug loaded in the micelles was quantified by UHPLC-UV. To ensure the complete destruction of the micelles and the release of encapsulated drug, samples were diluted in ACN prior to analysis. (1) Drug contentmgdrug/mLformulation=mass of drug in the formulationmg/volume of the formulationmL (2) Drug loadingmgdrug/gpolymer=drug in the formulationmg mL^−1/copolymer in the formulationg mL^−1 (3) Incorporation efficiency%=mass of drug incorporated in micellesmg/mass of drug introducedmg×100

[3] = Stability of the micelle solution after storage at 4 °C for 5 months; assay type: physicochemical; conditions: Formulation 6 (target 5 mg/mL), followed for 5 months
Protocol: Stability of the micelle solution was evaluated after storage at 4 °C for 5 months. Drug content and micelle size were determined at a series of time points (day 1, and then after 1, 2, 3, 4, and 5 months).

skin (porcine or human) = tested on: skin (porcine or human); design: method as in PMID 16176283, PMID 14698574; conditions: independent of skin origin (porcine or human) and formulation composition; cited from earlier work
skin proteins = tested on: skin proteins; design: method as in PMID 18524871; conditions: compared to TAC; cited from earlier work
[4] = source not given; cited from earlier work
Porcine ear skin [5] = assay: Skin delivery in vitro under infinite dose conditions and cutaneous biodistribution (Franz diffusion cells); conditions: micelle solution 0.2%, 12 h; for Drug deposition in skin regions (comparison): porcine skin; for Permeation across the skin (concentration, under the limit of quantification): receptor phase
Protocol: (§1) Porcine ear skin was used for skin delivery studies and was supplied by a local abattoir (CARRE; Rolle, CH). Briefly, skin samples were processed with a Zimmer air dermatome (Münsingen, Switzerland) to obtain pieces with a thickness of ∼800 µm. Hair was removed carefully from the skin surface using clippers. Circular disks of 30 mm were then punched out (Berg & Schmid HK 500; Urdorf, Switzerland) and stored at −20 °C until use, for a maximum period of 3 months.
(§2) Porcine skin samples were mounted in Franz diffusion cells (Milian SA; Meyrin, Switzerland) with a formulation contact area of 2 cm^2. In the donor compartment, the optimal micelle solution 0.2% was applied under infinite dose conditions (500 µL/cm^2) during 12 h. The receptor compartment was filled with 10 mL of phosphate buffered saline at pH 7.4 containing 1% BSA. The receiver phase was stirred at 250 rpm and maintained at 32 °C throughout the experiment. […] After the experiment, 1 mL of this phase was withdrawn to quantify drug permeation. Samples were diluted in ACN to precipitate BSA. After centrifugation at 5000 rpm at 4 °C during 15 min, the permeation samples were analysed by UHPLC-MS/MS. Each skin sample was carefully cleaned with a cotton swab and a wash solution to remove the residual formulation from skin surface.
(§3) At the end of the experiment, a small area, 0.8 cm^2, was punched out from the 2 cm^2 skin samples. These skin discs were snap-frozen in isopentane cooled by liquid nitrogen, followed by cryotoming (Thermo Scientific CryoStarTM NX70; Reinach, Switzerland) to obtain two lamellae with a thickness of 20 µm and 19 lamellae with a thickness of 40 μm. […] Drug deposited in each lamella was extracted in 300 µL of ACN overnight with continuous stirring at room temperature. The extraction samples were centrifuged at 5000 rpm for 10 min and diluted prior to UHPLC-MS/MS analysis.

Porcine ear skin [6] = conditions: pig, 12 h, 0.2 %, pH 7.4
Protocol: as §1, §2, §3

[7] = aqueous solution of TPGS (50 mg/mL), aqueous with cosolvent or surfactant or cyclodextrin, Drug solubility at TPGS concentration (33 mM or 50 mg/mL), room temperature, 24 h
[8] = aqueous solution of TPGS (50 mg/mL), aqueous with cosolvent or surfactant or cyclodextrin, Solubility on simple addition of the drug in the aqueous solution of TPGS, TPGS 50 mg/mL
[9] = water, water, room temperature, 24 h stirring, read-out: Drug solubility in water

Compound	Improvement of drug water solubility by addition of 50 mg/mL TPGS [1] [fold]	solubility at 24 h [1, 7] [µM]	solubility at 24 h [1, 8] [µM]	Aqueous solubility [1]	solubility at 24 h [1, 9] [µM]	Drug content of Formulation 5 [2] [mM]	Water solubility reached by polymeric micelle formulation [2] [µM]	Stability of Formulation 6 in terms of drug content [3]	Permeation across the skin (comparison) (skin (porcine or human))	Affinity/binding to skin components (comparison) (skin proteins)	Ionizable [4]	Drug deposition in skin regions (comparison) (Porcine ear skin [5])	Permeation across the skin (concentration, under the limit of quantification) (Porcine ear skin [5]) [ng/mL]	Solubility on simple addition of the drug in the aqueous solution of TPGS ([1]; TPGS 50 mg/mL) [µM]	Permeation across the skin (concentration, under the limit of quantification) (Porcine ear skin [6]) [ng/mL]
CC[C@@H]1/C=C(\C)C[C@H](C)C[C@H](OC)[C@H]2O[C@@](O)(C(=O)C(=O)N3CCCC[C@H]3C(=O)O[C@H](/C(C)=C/[C@@H]3CC[C@H](Cl)[C@H](OC)C3)[C@H](C)[C@@H](O)CC1=O)[C@H](C)C[C@@H]2OC [PIM, pimecrolimus]	1943	330 ± 31.2 (≈ 268 µg/mL)	300 (≈ 243 µg/mL)	Poor	0.17 ± 0.02 (≈ 0.138 µg/mL)	2.8	5600	remained stable during the 5 months	lower than TAC	stronger affinity with the components of the upper layers of the skin compared to TAC; also recorded: higher capacity-binding to other skin proteins	No	high percentage of PIM was delivered in the stratum corneum; also recorded: higher in the viable epidermis in comparison to SIR and TAC; also recorded: significantly higher in the upper region of the skin (20–180 µm)	< 3	–	–
CO[C@H]1C[C@@H]2CC[C@@H](C)[C@@](O)(O2)C(=O)C(=O)N2CCCC[C@H]2C(=O)O[C@H]([C@H](C)C[C@@H]2CC[C@@H](O)[C@H](OC)C2)CC(=O)[C@H](C)/C=C(\C)[C@@H](O)[C@@H](OC)C(=O)[C@H](C)C[C@H](C)/C=C/C=C/C=C/1C [SIR, sirolimus]	147	1210 ± 124 (≈ 1110 µg/mL)	–	Poor	8.24 ± 0.22 (≈ 7.53 µg/mL)	2.5	4900	became unstable after 4 months	–	–	No	–	–	1200	< 3
C=CC[C@@H]1/C=C(\C)C[C@H](C)C[C@H](OC)[C@H]2O[C@@](O)(C(=O)C(=O)N3CCCC[C@H]3C(=O)O[C@H](/C(C)=C/[C@@H]3CC[C@@H](O)[C@H](OC)C3)[C@H](C)[C@@H](O)CC1=O)[C@H](C)C[C@@H]2OC [TAC, tacrolimus]	3184	637 ± 73.5 (≈ 512 µg/mL)	600 (≈ 482 µg/mL)	Poor	0.2 ± 0.05 (≈ 0.161 µg/mL)	2.9	5600	remained stable during the 5 months	–	–	No	large percentage of skin deposition in the dermis	< 3	–	–
